Laboratory results taken from US20200055839A1 (priority 2017, published 2020).

These compounds were tested on NL-RLuc virus (assay: Inhibition of HIV replication (NL-RLuc virus, luciferase readout in MT-2 cells)). Settings: Human immunodeficiency virus 1, MT2, 120 h, MT-2 cells infected with NL-RLuc virus, 5 days of incubation, 10% FBS, at least 2 experiments.
Assay type: cell-based
Summary of the method: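 EC50 derived via median effect equation from at least 2 experiments, using luciferase expression as virus-growth readout. Replication-competent NL-RLuc reporter virus (nef partly replaced by Renilla luciferase) infected MT-2 cells with serial compound dilutions; 5-day incubation in RPMI 1640 plus 10% FBS.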
Work on `COc1ccccc1CCOc1ccc(-c2cnc(C)c([C@H](OC(C)(C)C)C(=O)O)c2N2CCC(C)(C)CC2)nc1` [Example 296, (2S)-2-(tert-butoxy)-2-[4′-(4,4-dimethylpiperidin-1-yl)-5-[2-(2-methoxyphenyl)ethoxy]-6′-methyl-[2,3′-bipyridine]-5′-yl]acetic acid] yielded an EC50 of 2 nM. `Cc1nc(-c2cnn(C)c2)c(-c2ccc(OCCc3ccc(F)cc3)cc2)c(N2CCC(C)(C)CC2)c1[C@H](OC(C)(C)C)C(=O)O` [Example 36, (S)-2-(tert-Butoxy)-2-(4-(4,4-dimethylpiperidin-1-yl)-5-(4-(4-fluorophenethoxy)phenyl)-2-methyl-6-(1-methyl-H-pyrazol-4-yl)pyridin-3-yl)acetic acid] showed an EC50 of 4 nM. `COc1ccccc1-c1cnc(C)c([C@H](OC(C)(C)C)C(=O)O)c1N1CCC(C)(C)CC1` [Example 167, (2S)-2-(tert-Butoxy)-2-[4-(4,4-dimethylpiperidin-1-yl)-5-(2-methoxyphenyl)-2-methylpyridin-3-yl]acetic acid] gave an EC50 of 5 nM. Compound `Cc1ncc(-c2cnc(O)c(F)c2)c(N2CCC(C)(C)CC2)c1[C@H](OC(C)(C)C)C(=O)O` [Example 387, (2S)-2-(tert-butoxy)-2-[4-(4,4-dimethylpiperidin-1-yl)-5′-fluoro-6′-hydroxy-6-methyl-[3,3′-bipyridine]-5-yl]acetic acid] has an EC50 of 4000 nM. In the case of `Cc1ncc(-c2cnc(OCCc3ccc(F)c(Cl)c3)c(F)c2)c(N2CCC(C)(C)CC2)c1[C@H](OC(C)(C)C)C(=O)O` [Example 403, (2S)-2-(tert-butoxy)-2-{6′-[2-(3-chloro-4-fluorophenyl)ethoxy]-4-(4,4-dimethylpiperidin-1-yl)-5′-fluoro-6-methyl-[3,3′-bipyridine]-5-yl}acetic acid], the EC50 is reported as 2 nM. With `CC1(C)CCN(c2c(-c3ccc(CNc4ncnc5c4oc4ccccc45)cc3)cnc(Cl)c2[C@H](OC(C)(C)C)C(=O)O)CC1` [Example 201, (S)-2-(5-(4-((Benzofuro[3,2-d]pyrimidin-4-ylamino)methyl)phenyl)-2-chloro-4-(4,4-dimethylpiperidin-1-yl)pyridin-3-yl)-2-(tert-butoxy)acetic acid] the EC50 was 1 nM. `Cc1nc(NCCCN2CCCCC2)c(-c2ccc(OCCc3ccc(F)cc3)cc2)c(N2CCC(C)(C)CC2)c1[C@H](OC(C)(C)C)C(=O)O` [Example 35, (S)-2-(tert-Butoxy)-2-(4-(4,4-dimethylpiperidin-1-yl)-5-(4-(4-fluorophenethoxy)phenyl)-2-methyl-6-((3-(piperidin-1-yl)propyl)amino)pyridin-3-yl)acetic acid] showed an EC50 of 1 nM. With `Cc1ncc(-c2cccc(-c3cccc(Cl)c3)c2)c(N2CCC(C)(C)CC2)c1[C@H](OC(C)(C)C)C(=O)O` [Example 144, (2S)-2-(tert-butoxy)-2-(5-{3′-chloro-[1,1′-biphenyl]-3-yl}-4-(4,4-dimethylpiperidin-1-yl)-2-methylpyridin-3-yl)acetic acid] the EC50 was 78 nM. Work on `Cc1cccc(Cl)c1CCOc1ccc(-c2cnc(C)c([C@H](OC(C)(C)C)C(=O)O)c2N2CCC(C)(C)CC2)nc1` [Example 284, (S)-2-(tert-Butoxy)-2-(5-(2-chloro-6-methylphenethoxy)-4′-(4,4-dimethylpiperidin-1-yl)-6′-methyl-[2, 3′-bipyridin]-5′-yl)acetic acid] yielded an EC50 of 3 nM. In the case of `COc1ccc(F)cc1-c1cnc(C)c([C@H](OC(C)(C)C)C(=O)O)c1N1CCC(C)(C)CC1` [Example 151, (2S)-2-(tert-Butoxy)-2-[4-(4,4-dimethylpiperidin-1-yl)-5-(5-fluoro-2-methoxyphenyl)-2-methylpyridin-3-yl]acetic acid], the EC50 is reported as 6 nM. For `Cc1ccc(COc2ccc(-c3cnc(C)c([C@H](OC(C)(C)C)C(=O)O)c3N3CCC(C)(C)CC3)nc2)cc1` [Example 342, (2S)-2-(tert-butoxy)-2-[4′-(4,4-dimethylpiperidin-1-yl)-6′-methyl-5-[(4-methylphenyl)methoxy]-[2,3′-bipyridine]-5′-yl]acetic acid], the EC50 was 2 nM. `Cc1ncc(-c2cc(F)c(CNc3ncnc4c3oc3ccccc34)c(F)c2)c(N2CCC(C)(C)CC2)c1[C@H](OC(C)(C)C)C(=O)O` [Example 219, (S)-2-(5-(4-((Benzofuro[3,2-d]pyrimidin-4-ylamino)methyl)-3,5-difluorophenyl)-4-(4,4-dimethylpiperidin-1-yl)-2-methylpyridin-3-yl)-2-(tert-butoxy)acetic acid] was tested, and the EC50 was 2 nM. With `Cc1ncc(-c2ccc(OCc3cccc(Cl)c3)cn2)c(N2CCC(C)(C)CC2)c1[C@H](OC(C)(C)C)C(=O)O` [Example 337, (2S)-2-(tert-butoxy)-2-{5-[(3-chlorophenyl)methoxy]-4′-(4,4-dimethylpiperidin-1-yl)-6′-methyl-[2,3′-bipyridine]-5′-yl}acetic acid] the EC50 was 2 nM. For `Cc1nc(N)c(-c2cnc(NCCc3ccc(F)cc3)c(F)c2)c(N2CCC(C)(C)CC2)c1[C@H](OC(C)(C)C)C(=O)O` [Example 113, (S)-2-(2-Amino-4-(4,4-dimethylpiperidin-1-yl)-5′-fluoro-6′-((4-fluorophenethyl)amino)-6-methyl-[3, 3′-bipyridin]-5-yl)-2-(tert-butoxy)acetic acid], the EC50 was 3 nM. With `Cc1ncc(-c2ccc(OCCc3c(F)cccc3Cl)cn2)c(N2CCC(C)(C)CC2)c1[C@H](OC(C)(C)C)C(=O)O` [Example 305, (2S)-2-(tert-butoxy)-2-{5-[2-(2-chloro-6-fluorophenyl)ethoxy]-4′-(4,4-dimethylpiperidin-1-yl)-6′-methyl-[2,3′-bipyridine]-5′-yl}acetic acid] the EC50 was 1 nM. For `CCC(C)(C)O[C@H](C(=O)O)c1c(C)ncc(-c2ccc(OCCc3ccc(F)cc3)cc2)c1N1CCC(C)(C)CC1` [Example 18, (2S)-2-[4-(4,4-Dimethylpiperidin-1-yl)-5-{4-[2-(4-fluorophenyl)ethoxy]phenyl}-2-methylpyridin-3-yl]-2-[(2-methylbutan-2-yl)oxy]acetic acid], the EC50 was 4 nM. For `Cc1ncc(-c2ccc(C(F)CC(C)C)nc2)c(N2CCC(C)(C)CC2)c1[C@H](OC(C)(C)C)C(=O)O` (stereo partly drawn) [Example 411, (2S)-2-(tert-Butoxy)-2-(4-(4,4-dimethylpiperidin-1-yl)-6′-(1-fluoro-3-methylbutyl)-6-methyl-[3, 3′-bipyridin]-5-yl)acetic acid], the EC50 was 20 nM. Work on `CCCCN(C)c1ccc(-c2cnc(C)c([C@H](OC(C)(C)C)C(=O)O)c2N2CCC(C)(C)CC2)nc1` [Example 442, (S)-2-(tert-Butoxy)-2-(5-(butyl(methyl)amino)-4′-(4,4-dimethylpiperidin-1-yl)-6′-methyl-[2, 3′-bipyridin]-5′-yl)acetic acid] yielded an EC50 of 5 nM. In the case of `CCC(C)(C)O[C@H](C(=O)O)c1c(C)ncc(-c2ccc(OCCc3ccc(F)cc3)c(F)c2)c1N1CCC(C)(C)CC1` [Example 226, (S)-2-(4-(4,4-Dimethylpiperidin-1-yl)-5-(3-fluoro-4-(4-fluorophenethoxy)phenyl)-2-methylpyridin-3-yl)-2-(tert-pentyloxy)acetic acid], the EC50 is reported as 5 nM. In the case of `Cc1nc(-n2ccnc2C)c(-c2ccc(OCCc3ccc(F)cc3)cc2)c(N2CCC(C)(C)CC2)c1[C@H](OC(C)(C)C)C(=O)O` [Example 54, (S)-2-(tert-Butoxy)-2-(4-(4,4-dimethylpiperidin-1-yl)-5-(4-(4-fluorophenethoxy)phenyl)-2-methyl-6-(2-methyl-1H-imidazol-1-yl)pyridin-3-yl)acetic acid], the EC50 is reported as 2 nM.
